Legend:
[1] = target: T1, OATP1B1 (Homo sapiens, UniProt Q9Y6L6); assay: Uptake in MDCKⅡ-OATP1B1 cells; format: cell-based; conditions: MDCKⅡ-OATP1B1, 30, 60 µmol/L, 20 or 40 min
T1 construct: expressed in transfected cells; host or cells: MDCKII
T1 sequence (Q9Y6L6 1-691): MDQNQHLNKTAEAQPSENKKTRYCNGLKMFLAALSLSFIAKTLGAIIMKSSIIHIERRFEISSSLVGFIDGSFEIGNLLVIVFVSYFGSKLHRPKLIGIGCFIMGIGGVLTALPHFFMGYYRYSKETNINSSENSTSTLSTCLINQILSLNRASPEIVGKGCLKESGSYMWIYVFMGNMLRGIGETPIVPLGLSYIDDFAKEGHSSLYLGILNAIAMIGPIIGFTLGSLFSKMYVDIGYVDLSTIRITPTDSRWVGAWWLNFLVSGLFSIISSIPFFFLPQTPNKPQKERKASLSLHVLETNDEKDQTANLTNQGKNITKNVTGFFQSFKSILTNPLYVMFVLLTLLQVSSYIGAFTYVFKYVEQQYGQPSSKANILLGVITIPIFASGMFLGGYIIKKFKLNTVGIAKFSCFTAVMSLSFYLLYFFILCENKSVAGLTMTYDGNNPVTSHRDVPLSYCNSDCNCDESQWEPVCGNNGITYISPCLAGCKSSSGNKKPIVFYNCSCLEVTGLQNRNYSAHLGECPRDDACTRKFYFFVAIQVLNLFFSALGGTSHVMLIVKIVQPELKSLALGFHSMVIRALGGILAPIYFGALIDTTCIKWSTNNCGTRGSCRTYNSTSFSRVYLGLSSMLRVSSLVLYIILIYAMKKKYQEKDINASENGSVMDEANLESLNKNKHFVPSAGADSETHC
Method: Figure S4 Uptake of IMM-H004G in MDCKⅡ-OATP1B1 and MDCKⅡ-OATP1B3 cells. (a)
RSV (rosuvastatin, 30 µmol/L) is used as a positive group in MDCKⅡ-OATP1B1 cells. (b)
E17βG (estradiol-17β-glucuronide, 5 µmol/L) is used as a positive group in
MDCKⅡ-OATP1B3 cells. (c) IMM-H004G (30, 60 µmol/L) was incubated with
MDCKⅡ-OATP1B1 and MDCKⅡ-OATP1B3 cells for 20 or 40 min. The OATP
pan-inhibitor CsA (cyclosporin A) is 10 µmol/L. n=3 for positive substrates, and n=2 for
IMM-H004G. ***p < 0.001, **p < 0.01, *p < 0.05 vs. control group. ns, not significant.
(1 picture or pasted object on this page, not shown here)

[2] = target: T2, OATP1A2 (Homo sapiens, UniProt P46721); assay: Uptake in CHO-OATP1A2 overexpressing cells; format: cell-based; conditions: CHO-OATP1A2 vs mock, 10 min; IMM-H004G 10 μmol/L
T2 construct: host or cells: CHO
T2 sequence (P46721 1-670): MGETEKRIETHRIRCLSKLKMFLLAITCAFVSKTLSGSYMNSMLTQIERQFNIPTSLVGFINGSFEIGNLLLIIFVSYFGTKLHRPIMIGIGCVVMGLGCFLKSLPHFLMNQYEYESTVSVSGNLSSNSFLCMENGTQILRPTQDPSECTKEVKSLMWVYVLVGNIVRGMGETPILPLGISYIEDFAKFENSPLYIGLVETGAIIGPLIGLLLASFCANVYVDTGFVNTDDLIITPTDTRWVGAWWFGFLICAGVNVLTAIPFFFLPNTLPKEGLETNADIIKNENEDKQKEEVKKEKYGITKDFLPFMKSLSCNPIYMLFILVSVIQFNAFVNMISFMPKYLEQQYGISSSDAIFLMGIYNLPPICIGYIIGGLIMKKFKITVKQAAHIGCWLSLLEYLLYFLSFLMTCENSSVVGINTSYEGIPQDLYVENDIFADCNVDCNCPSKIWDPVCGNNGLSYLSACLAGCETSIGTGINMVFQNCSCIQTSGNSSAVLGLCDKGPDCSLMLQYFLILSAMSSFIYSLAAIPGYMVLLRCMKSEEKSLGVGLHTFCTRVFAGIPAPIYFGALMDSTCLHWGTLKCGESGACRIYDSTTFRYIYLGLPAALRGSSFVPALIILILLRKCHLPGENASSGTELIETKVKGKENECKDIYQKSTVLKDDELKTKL
From the text: CHO cells and MDCKⅡ cells were stably transfected with lentiviruses carrying human SCLO1A2 (encoding OATP1A2) and SCLO2B1 (encoding OATP2B1), respectively. Cell transfected with lentiviruses carrying empty vectors served as control. Lentiviral plasmid packages were obtained from OBiO Technology (Shanghai, China), and procedures followed the instructions of the virus manual. Stably transfected cells were routinely grown in a 100 mm dish in DMEM with 10% fetal bovine serum. Prior to the experiments, the seeding density of the overexpressing cells in 24-well plates was 4 × 10^5 cells per well, and the medium was supplemented with 2 mM sodium butyrate for 24 h. The cultured cells were washed twice with prewarmed HBSS after removing the medium and then treated with 10 μmol/L IMM-H004G and 100 μmol/L rifampicin (or an equal amount of solvent dimethyl sulfoxide) for 10 min. After incubation, the cells were washed four times with cold HBSS. Follow-up sample processing procedures were as described in Section 2.3.1. E17βG (5 μmol/L) and rosuvastatin (10 μmol/L) were used as positive substrates in CHO-OATP1A2 and MDCKⅡ-OATP2B1 cells, respectively. The MDCKⅡ-MDR1 cells were previously established by our laboratory.

[3] = test system: hCMEC/D3 cells; assay: In vitro metabolism in human brain cells (hCMEC/D3); format: in vitro ADME; conditions: IMM-H004 1–100 μmol/L
Method: SH-SY5Y, HEB, and hCMEC/D3 cells were utilized to investigate the in vitro metabolism of IMM-H004 and IMM-H004G in the brain. SH-SY5Y and HEB cells were cultured routinely in Dulbecco’s modified Eagle’s medium (DMEM) containing 10% fetal bovine serum and a 100 U/mL penicillin–100 μg/mL streptomycin solution. hCMEC/D3 cells were seeded on collagen type I coated 24-well plates and cultured in EndoGRO™-MV complete medium following the manufacturer’s guidelines. The cells were incubated at 37 °C, with 5% CO2, and were maintained in a humidified environment. Once the confluence reached 70–80%, the cells were digested using a 0.25% trypsin–EDTA solution, centrifuged at 200× g for 5 min, and then resuspended in a fresh culture medium. For each experiment, after seeding and 24 h incubation, the cells were washed twice with a prewarmed culture medium, and then IMM-H004 or IMM-H004G (1–100 μmol/L) dissolved in the culture medium was added. Incubation was carried out at 37 °C for 5 h or 24 h. After incubation, the supernatants were collected. Subsequently, the cells were washed with cold HBSS three times and lysed in a RIPA lysis buffer (Beyotime Inc., Shanghai, China). The concentrations of IMM-H004 and IMM-H004G were determined by liquid chromatography with tandem mass spectrometry (LC-MS/MS).

| uptake increase in OATP1B1-overexpressing cells compared to control cells [1] | uptake increase in OATP1A2-overexpressing cells compared to control cells [2] [fold] | production of IMM-H004G from IMM-H004 [3] | SMILES |
| --- | --- | --- | --- |
| did not exceed a tenfold increase | 9.7 |  | COc1cc(OC2OC(C(=O)O)C(O)C(O)C2O)cc2oc(=O)c(N3CCN(C)CC3)c(C)c12 (stereo not drawn) [IMM-H004G] |
|  |  | not detected | COc1cc(O)cc2oc(=O)c(N3CCN(C)CC3)c(C)c12 [IMM-H004] |
